Measurements published in paper PMC6973046 (Journal of Thrombosis and Haemostasis, 2019).
pIC50: −log10 of the molar value.

How the values were obtained:
humans = details: cited from earlier work
tissue transglutaminase = target: T1, tissue transglutaminase (Homo sapiens, UniProt P21980); assay: Isopeptidase assay; assay type: biochemical; details: read-out: IC50 against tissue transglutaminase in the isopeptidase assay
T1 sequence (P21980 1-687): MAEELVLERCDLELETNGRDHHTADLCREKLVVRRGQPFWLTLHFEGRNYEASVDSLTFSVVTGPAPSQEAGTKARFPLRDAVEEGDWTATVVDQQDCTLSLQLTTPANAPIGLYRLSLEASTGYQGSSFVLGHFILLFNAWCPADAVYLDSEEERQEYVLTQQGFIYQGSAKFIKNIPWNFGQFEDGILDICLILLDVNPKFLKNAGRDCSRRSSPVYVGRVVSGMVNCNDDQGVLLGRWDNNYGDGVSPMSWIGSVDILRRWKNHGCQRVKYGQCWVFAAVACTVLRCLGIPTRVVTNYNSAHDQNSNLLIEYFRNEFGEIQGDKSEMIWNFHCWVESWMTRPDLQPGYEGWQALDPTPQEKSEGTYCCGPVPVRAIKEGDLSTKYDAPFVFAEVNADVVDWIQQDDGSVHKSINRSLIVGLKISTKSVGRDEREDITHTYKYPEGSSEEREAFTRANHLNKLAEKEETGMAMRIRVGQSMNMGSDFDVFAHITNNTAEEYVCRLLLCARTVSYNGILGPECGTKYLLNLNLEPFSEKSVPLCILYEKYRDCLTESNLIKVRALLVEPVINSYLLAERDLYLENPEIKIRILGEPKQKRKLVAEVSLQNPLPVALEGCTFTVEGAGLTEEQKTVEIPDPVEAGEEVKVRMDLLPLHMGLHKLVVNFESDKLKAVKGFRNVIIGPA

pIC50 (tissue transglutaminase) | Structure (SMILES) | Safety and tolerability (humans)
– | CCC(CC)CNC(=O)Cn1cccc(NC(=O)[C@H](CC/C=C/C(=O)OC)NC(=O)c2cncn2C)c1=O [ZED1227] | safe and well tolerated
~6.60 | CC(=O)CSc1n(C)c(C)c(C)[n+]1C [L‐682.777] | –
